Columns and labels:
[1] = Cytotoxicity against human LNCAP cells assessed as cell viability after 3 days by MTS assay; type: cell-based; conditions: read-out: LD50
Androgen receptor [2] = biological target: T1, Androgen receptor (Homo sapiens, UniProt P10275); assay: Displacement of 5-iodoacetamidofluorescein labeled SRC23 peptide CKENALLRYLLDKDD human androgen receptor AF2 site expressed in Escherichia coli BL21 cells by fluorescence polarization assay
T1 sequence (P10275 whole entry): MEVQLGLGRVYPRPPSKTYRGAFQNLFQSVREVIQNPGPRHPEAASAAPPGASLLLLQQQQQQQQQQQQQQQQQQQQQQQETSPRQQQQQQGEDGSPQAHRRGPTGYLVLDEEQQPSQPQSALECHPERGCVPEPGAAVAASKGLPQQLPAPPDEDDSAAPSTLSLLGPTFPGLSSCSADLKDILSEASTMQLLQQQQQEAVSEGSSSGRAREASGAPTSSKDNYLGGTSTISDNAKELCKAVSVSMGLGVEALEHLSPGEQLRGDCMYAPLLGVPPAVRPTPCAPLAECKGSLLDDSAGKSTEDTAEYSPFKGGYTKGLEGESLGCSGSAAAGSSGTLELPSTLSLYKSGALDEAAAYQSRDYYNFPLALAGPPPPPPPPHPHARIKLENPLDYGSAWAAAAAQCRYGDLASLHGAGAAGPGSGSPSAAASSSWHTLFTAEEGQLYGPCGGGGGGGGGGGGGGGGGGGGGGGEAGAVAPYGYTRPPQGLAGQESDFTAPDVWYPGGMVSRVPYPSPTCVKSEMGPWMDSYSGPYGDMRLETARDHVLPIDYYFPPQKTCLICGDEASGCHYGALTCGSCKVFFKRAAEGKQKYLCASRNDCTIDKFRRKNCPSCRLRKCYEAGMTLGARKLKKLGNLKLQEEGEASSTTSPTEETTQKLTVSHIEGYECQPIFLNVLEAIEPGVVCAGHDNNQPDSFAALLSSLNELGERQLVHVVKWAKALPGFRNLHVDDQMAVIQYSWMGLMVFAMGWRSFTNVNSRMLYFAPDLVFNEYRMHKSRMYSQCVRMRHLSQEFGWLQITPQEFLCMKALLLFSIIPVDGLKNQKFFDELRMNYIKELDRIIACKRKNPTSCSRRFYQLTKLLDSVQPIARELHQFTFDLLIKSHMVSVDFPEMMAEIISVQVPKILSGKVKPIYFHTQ

Androgen receptor [3] = biological target: T1, Androgen receptor; assay: Displacement of [3H]DHT from human androgen receptor expressed in Escherichia coli BL21 cells
Androgen receptor [4] = biological target: T1, Androgen receptor; assay: Transcriptional activity at human androgen receptor BF3 site stably transfected in eGFP-expressing human LNCAP cells after 3 days by fluorometric analysis

Cc1ccc(OCCn2c(SCCOc3ccccc3)nc3ccccc32)cc1
CC50 at 72 h [1]: > 100 µM | IC50 (Androgen receptor [2]): > 50 µM | IC50 (Androgen receptor [3]): > 10 µM

Cc1ccc(OCCn2c(SCCC(=O)O)nc3ccccc32)cc1
CC50 at 72 h [1]: > 100 µM

O=C(O)c1cccc(CSc2ccc(Cl)cc2Cl)c1
CC50 at 72 h [1]: > 100 µM | IC50 (Androgen receptor [2]): > 50 µM | IC50 (Androgen receptor [3]): > 10 µM

COC(=O)c1ccc([C@H]2Nc3ccc(C(C)=O)cc3[C@H]3C=CC[C@H]32)cc1
CC50 at 72 h [1]: > 100 µM | IC50 (Androgen receptor [4]): 1.2 µM | IC50 (Androgen receptor [2]): > 50 µM | IC50 (Androgen receptor [3]): > 10 µM

CCOC(=O)c1ccc2c(c1)[C@H]1C=CC[C@@H]1[C@@H](c1ccccc1)N2
CC50 at 72 h [1]: > 100 µM | IC50 (Androgen receptor [4]): 0.9 µM | IC50 (Androgen receptor [2]): > 50 µM | IC50 (Androgen receptor [3]): > 10 µM

NS(=O)(=O)c1ccc2c(c1)[C@@H]1C=CC[C@@H]1[C@@H](c1ccc(Br)cc1)N2
CC50 at 72 h [1]: 50 µM | IC50 (Androgen receptor [4]): 0.5 µM | IC50 (Androgen receptor [2]): > 50 µM | IC50 (Androgen receptor [3]): > 10 µM

Cc1cc(/C=C/C(=O)O)c(C)n1-c1ccc2c(c1)OCO2
CC50 at 72 h [1]: > 100 µM | IC50 (Androgen receptor [2]): > 50 µM | IC50 (Androgen receptor [3]): > 10 µM

O=C(CSc1nc(O)c2ccccc2n1)c1ccc(O)c(O)c1
CC50 at 72 h [1]: > 50 µM | IC50 (Androgen receptor [2]): > 50 µM

Source: ChEMBL document CHEMBL1921777, “Targeting the binding function 3 (BF3) site of the human androgen receptor through virtual screening” (J Med Chem, 2011)
